Results from patent US20240065997A1, “Methods and Compositions for Improving Insulin Production and Secretion” (ABBOTT LABORATORIES, priority 2021, published 2024).

Assays:
[1] = tested on: INS-1 cells; assay: 2-deoxy-[3H]d-glucose (2-DG) uptake in INS-1 cells; format: cell-based, rat; conditions: overnight incubation, lysine 10 mM, arginine 5 mM, HMB 25 μM, 2-DG uptake over 10 min, FIG. 1
Experimental: 2-deoxy-[3H]d-glucose (2-DG) (10 μmol/L) uptake was measured over a 10 minute period under conditions in which the uptake was linear. The uptake of 2-DG was terminated after 10 minutes by rapidly aspirating off the radioactive incubation medium and washing the cells three times in ice-cold phosphate-buffered saline. The radioactivity associated with the cells was determined by cell lysis in 0.5 N NaOH with neutralization by the addition of 0.5 N HCl, followed by liquid scintillation. Aliquots from each well were used to determine the protein concentration using the bicinchoninic acid (BCA) Protein assay.

[2] = tested on: INS-1 cells; assay: MTT cell viability assay in palmitate-treated INS-1 cells; format: cell-based, rat; conditions: palmitate 250 μM 24 hours, effectors added 3 hours before (arginine 5 mM, lysine 10 mM, HMB 25 μM), FIG. 6
Experimental: This example describes the use of the rat insulinoma cell line (INS-1) to detect the effect of the combination of lysine, arginine, and HMB on the functional characteristics of β-cells in the presence of free fatty acids (e.g., palmitic acid) using standardized protocols for viability. […] The INS-1 cells were maintained in RPMI 1640 medium with 11.1 mmol/L D-glucose supplemented with 10% fetal bovine serum, 100 units/mL penicillin, 100 μg/mL streptomycin, 10 mmol/L HEPES, 2 mmol/L L-glutamine, 1 mmol/L sodium pyruvate, and 50 μmol/L β-mercaptoethanol at 37° C./5% CO2 in a humidified atmosphere.
The pre-confluent pancreatic cells were left either untreated (Control) or treated with palmitate at a concentration of 250 μM for 24 hours in complete medium (Palmitate). Three hours before incubation with palmitate, four different effectors were added: arginine (5 mM), lysine (10 mM), HMB (25 μM), and the combination of arginine (5 mM), lysine (10 mM), and HMB (25 μM).
The cell groups employed in the study were the following: • (i) Control: INS-1 cells without ingredients. • (ii) Palmitate: INS-1 cells incubated in the presence of 250 μM palmitate. • (iii) Palmitate+ARG: INS-1 cells incubated in the presence of 250 μM palmitate and 5 mM of arginine. • (iv) Palmitate+LYS: INS-1 cells incubated in the presence of 250 μM palmitate and 10 mM of lysine. • (v) Palmitate+HMB: INS-1 cells incubated in the presence of 250 μM palmitate and 25 μM of HMB-free acid. • (vi) Palmitate+MIX: INS-1 cells incubated in the presence of 250 μM palmitate and the combination of 5 mM of arginine, 10 mM of lysine, and 25 μM of HMB.
A cell viability assay was performed by the indirect measurement of cell metabolic activity using MTT (3-(4,5-dimethylthiazol-2-yl)-2,5-diphenyltetrazolium bromide). After 24 hours of incubation with the above effectors, the MTT solution (0.5 mg/ml) was added for 30 minutes. The supernatant was removed, 100 μl MTT solvent was added to each well, and the culture plate was shaken for 10 minutes before the Optical Density (OD) values were recorded at 570 nm.

[3] = tested on: INS-1 cells; assay: Insulin production by INS-1 cells (24 h effectors, then glucose 2 h; RIEI Kit); format: cell-based, rat; conditions: arginine 5 mM, lysine 10 mM, HMB 25 μM for 24 hours, then glucose 10 mM 2 hours, FIG. 4
Experimental: Insulin production by β-cells was evaluated by incubating INS-1 cells in the presence of the following effectors: arginine (5 mM), lysine (10 mM), HMB (25 μM), and a combination of arginine (5 mM), lysine (10 mM), and HMB (25 μM). INS-1 cells without effectors were again used as a control. The cells were incubated with each of the above mentioned effectors for 24 hours. Following the initial 24 hour incubation period with the effectors, the same INS-1 cells were incubated with glucose (10 mM) for 2 hours. Insulin was again detected using the RIEI Kit according to the manufacturer's instructions.

[4] = tested on: INS-1 cells; assay: Acute insulin secretion in INS-1 cells (Rat Insulin Enzyme Immunoassay); format: cell-based; conditions: glucose 10 mM, arginine 5 mM, lysine 10 mM, HMB 25 μM, 2 hours, FIG. 3
Experimental: Acute insulin secretion was determined by incubating INS-1 cells in the presence of the following effectors: glucose (10 mM), and the effectors arginine (5 mM), lysine (10 mM), HMB (25 μM), and a combination of arginine (5 mM), lysine (10 mM), and HMB (25 μM) for 2 hours. INS-1 cells without effectors were used as a control. Insulin was detected using the Rat Insulin Enzyme Immunoassay (RIEI) Kit (Mercodia, Sweden) according to the manufacturer's instructions.

[5] = tested on: GLUT2; assay: Expression level of glucose transporter GLUT2 in INS-1 cells; conditions: HMB 25 μM, FIG. 2; for increase in the relative intensity of the expression level of GLUT2 compared to control: lysine 10 mM, arginine 5 mM
Experimental: The INS-1 cells were maintained in RPMI 1640 medium with 11.1 mmol/L D-glucose supplemented with 10% fetal bovine serum, 100 units/mL penicillin, 100 μg/mL streptomycin, 10 mmol/L HEPES, 2 mmol/L L-glutamine, 1 mmol/L sodium pyruvate, and 50 μmol/L β-mercaptoethanol at 37° C./5% CO2 in a humidified atmosphere.
The cells were incubated with different effectors overnight. The following cell groups were employed: • (i) Control: INS-1 cells without ingredients. • (ii) ARG: INS-1 cells incubated in the presence of 5 mM of arginine. • (iii) LYS: INS-1 cells incubated in the presence of 10 mM of lysine. • (iv) HMB: INS-1 cells incubated in the presence of 25 μM of HMB-free acid. • (v) MIX: INS-1 cells incubated in the presence of the combination of 5 mM of arginine, 10 mM of lysine, and 25 μM of HMB.

SMILES	increase in glucose uptake compared to the control [1]	cell viability at 24 hours (in words) [2]	insulin production compared to the control (in words) [3]	acute response of insulin secretion to extracellular glucose, with respect to the control (in words) [4]	decrease in the relative intensity of the expression level of GLUT2 compared to control [5]	increase in the relative intensity of the expression level of GLUT2 compared to control [5]
CC(C)(O)CC(=O)O [HMB, beta-hydroxy-beta-methylbutyrate]	about 31%	reduced cell viability	rose slightly	did not show a significant difference	~23%	–
N=C(N)NCCC[C@H](N)C(=O)O [arginine]	about 52%	reduced cell viability	rose slightly	did not show a significant difference	–	~30%
NCCCC[C@H](N)C(=O)O [lysine]	about 100%	reduced cell viability	rose slightly	did not show a significant difference	–	~90%
